Laboratory results as given in paper PMC8466825, “Mass Spectrometric Quantification of the Antimicrobial Peptide Pep19-2.5 with Stable Isotope Labeling and Acidic Hydrolysis” (Pharmaceutics, 2021).

test: Stability of aromatic amino acids during acidic hydrolysis (HPLC); type: physicochemical; conditions: hydrochloric acid, 24 h at 120 °C, 1 mg/mL before hydrolysis, HPLC with UV 214 nm
Method: For acidic hydrolysis 10 µL ^13C6(ring) phenylalanine (1 mg/mL stock) were added as internal standard to 200 µL water containing ^13C9,^15N1 phenylalanine (for calibration curve) or human serum (from voluntary donors) containing Pep19-2.5 with four ^13C9,^15N1 phenylalanine residues. After addition of 270 µL hydrochloric acid (10 M), the samples were hydrolyzed at 120 °C for 24 h. Subsequently, the solvent was evaporated in a vacuum evaporator (HETOVAC) at 40 °C for 4 h and the pellet was resuspended in water to achieve the applied concentration.
HPLC analysis was performed using an Agilent 1100 system with an UV-detection at 214 nm. As stationary phase a Chromolith® Performance RP-18e 100–3 mm column (Merck KGaA, Darmstadt, Germany) was used. A 5 min linear gradient from 100% water (+0.05% trifluoroacetic acid (TFA)) to 100% acetonitrile (+0.05% TFA) was applied.
For an accurate determination it is necessary to select an amino acid which is stable under the extreme conditions in the hydrolysis step (24 h, 120 °C). Moreover, the development of the method is facilitated if the amino acid is UV-active and more importantly in case of hydrophobic amino acids that are separated from the bulk of amino acids by RP-HPLC. Due to this, the three aromatic amino acids phenylalanine, tryptophan and tyrosine were hydrolyzed, and their stability analyzed by HPLC, as shown in Figure 4.

stability during the acidic hydrolysis process | Compound
forms several degradation products | N[C@@H](Cc1c[nH]c2ccccc12)C(=O)O [Tryptophan, tryptophan]
sufficiently stable | N[C@@H](Cc1ccccc1)C(=O)O [phenylalanine]
degraded to poorly soluble products | N[C@@H](Cc1ccc(O)cc1)C(=O)O [tyrosine]
